Experimental data as given in patent US20250345295A1, “LMK235 COMPOSITIONS AND METHODS” (UNM Rainforest Innovations, priority 2024, published 2025).
Where “and” joins values, the source holds several entries; their conditions need not be identical. Identical values can stand only once.

Tested on: differentially expressed genes in TG
Experiment: RNAseq gene expression profiling of TG
Type: in vivo, mouse
Conditions: for Log2FC Ascl1 / Log2FC Klf2 / Log2FC Klf4 / Log2FC Klf5 / Log2FC Klf6 / Log2FC Klf7 / Log2FC Klf9 / Log2FC Klf13 / Log2FC Klf15 / Log2FC Klf16 / Log2FC L-Myc (Mycl) / Log2FC Lin28b / Log2FC Myt1l / Log2FC N-Myc (Mycn) / Log2FC Nanog / Log2FC NeuroD1 / Log2FC Sirt1 / Log2FC Sox2 / Log2FC Sox11 / Log2FC Stat3 / Log2FC c-Myc (Myc): TG
Protocol: Gene expression profiling was performed on TG from mice with/without nerve injury during the acute phase (three weeks post injury) in TIC mice and after transition to chronic pain (10 weeks post injury) in FRICT-ION mice by Quick Biology Inc. (Monrovia, CA).
Total RNA from ipsilateral TG was isolated using the Rneasy Mini Kit (Qiagen, Valencia, CA). Gene expression profiling and analysis with RNA was done by Quick Biology Inc. (Monrovia, CA). RNAseq library preparation was performed by Quick Biology Inc. (Monrovia, CA), sequencing was performed using an Illumina HiSeq 4000 at 40 million reads per sample. The reads were first mapped to the latest UCSC transcript set using Bowtie2 version 2.1.0 and the gene expression level was estimated using RSEM v1.2.15. Differentially expressed genes were identified using the edgeR program. Genes showing altered expression with p<0.05 were considered differentially expressed.

[1] = TG RNAseq, LMK235-treated vs untreated FRICT-ION mice
[2] = TG RNAseq, male FRICT-ION mice treated with LMK235 vs Vehicle, week 10
[3] = TG RNAseq, male FRICT-ION mice treated with LMK235 vs naive, week 10
[4] = LMK235 Treated FRICT-ION versus Naive
[5] = LMK235 Treated FRICT-ION versus Untreated FRICT-ION

Cc1cc(C)cc(C(=O)NOCCCCCC(=O)NO)c1 [LMK235, N-[[6-(Hydroxyamino)-6-oxohexyl]oxy]-3,5-dimethyl-benzamide]
Nav3 downregulated, fold [1]: 1.19 fold | Net1 upregulated, fold [1]: 1.12 fold | Neurod4 upregulated, fold [1]: 1.57 fold | Nf2 upregulated, fold [1]: 1.04 fold | Ngef downregulated, fold [1]: 1.34 fold | Nkain2 downregulated, fold [1]: 1.14 fold | Nova1 upregulated, fold [1]: 1.04 fold | Nras downregulated, fold [1]: 1.03 fold | Nrg2 upregulated, fold [1]: 1.10 fold | Nrg3 downregulated, fold [1]: 1.00 fold | Ntrk1 upregulated, fold [1]: 1.80 fold | Nts downregulated, fold [1]: 1.74 fold | Scn2a Scn2a1 downregulated, fold [1]: 1.04 fold | Scn3a downregulated, fold [1]: 1.01 fold | Scn7a downregulated, fold [1]: 1.07 fold | Scn8a upregulated, fold [1]: 1.05 fold | Scn9a upregulated, fold [1]: 1.29 fold | Trpc6 upregulated, fold [1]: 1.08 fold | Trpm3 upregulated, fold [1]: 1.19 fold | Trpm4 upregulated, fold [1]: 1.05 fold | Trpv6 downregulated, fold [1]: 1.19 fold | Fold change 1700047I17Rik2 [2]: 3.82 fold | Fold change 8430408G22Rik [2]: 2.46 fold | Fold change Acta2 [2]: 2.01 fold | Fold change Amy2a5 [2]: 2.03 fold | Fold change Armc3 [2]: 2.04 fold | Fold change Asb4 [2]: 1.53 fold | Fold change C1ql2 [2]: 2.34 fold | Fold change C1ql4 [2]: 4.76 fold | Fold change Calcb [2]: 2.17 fold | Fold change Ccdc153 [2]: 2.32 fold | Fold change Cckbr [2]: −2.32 fold | Fold change Crhbp [2]: 2.79 fold | Fold change Cutal [2]: 2.10 fold | Fold change Cyp26b1 [2]: 2.99 fold | Fold change Cytl1 [2]: 2.14 fold | Fold change Dmrt3 [2]: 2.46 fold | Fold change Eif3j2 [2]: 3.88 fold | Fold change Evi2a-evi2b [2]: 136.10 fold | Fold change Fev [2]: 2.35 fold | Fold change Gata3 [2]: 3.74 fold | Fold change Gh [2]: −25.22 fold | Fold change Gm833 [2]: 2.45 fold | Fold change Gm8221 [2]: 241.23 fold | Fold change Gm13306 [2]: 48.23 fold | Fold change Gpx2 [2]: 3.17 fold | Fold change Gucy2f [2]: 2.13 fold | Fold change H19 [2]: 2.05 fold | Fold change Hdac5 [2]: −2.03 fold | Fold change Hist2h3c2 [2]: 128.58 fold | Fold change Hoxb9 [2]: −16.50 fold and −16.5 fold | Fold change Hoxc8 [2]: −8.22 fold | Fold change Hoxd8 [2]: −4.14 fold | Fold change Irx4 [2]: 2.51 fold | Fold change Isl1 [2]: 2.30 fold | Fold change Kcnmb1 [2]: 2.15 fold | Fold change Mgl2 [2]: 2.39 fold | Fold change Myom1 [2]: 2.01 fold | Fold change Nkx6-3 [2]: 2.10 fold | Fold change Onecut3 [2]: 2.22 fold | Fold change P2rx2 [2]: −1.84 fold | Fold change P2rx4 [2]: −2.08 fold | Fold change Pappa2 [2]: 2.16 fold | Fold change Pde4c [2]: 2.45 fold | Fold change Ppp1r1c [2]: 2.51 fold | Fold change Sec16b [2]: 1.98 fold | Fold change Serpina3h [2]: 2.51 fold | Fold change Shox2 [2]: 2.49 fold | Fold change Slc6a4 [2]: 4.38 fold | Fold change Slc18a2 [2]: 2.01 fold | Fold change Slfn4 [2]: −2.32 fold | Fold change Sp8 [2]: 2.42 fold | Fold change Tmprss11d [2]: 2.98 fold | Fold change Tph2 [2]: 4.18 fold | Fold change Tyrp1 [2]: 3.03 fold | Fold change Vmn2r84 [2]: 2.71 fold | Fold change lc6a2 [2]: 2.91 fold | Gh downregulated, fold [2]: 25.22 fold | Hoxb9 downregulated, fold [2]: 16.50 fold | Hoxc8 downregulated, fold [2]: 8.22 fold | Hoxd8 downregulated, fold [2]: 4.14 fold | P2rx4 downregulated, fold [2]: 2.08 fold | Slfn4 downregulated, fold [2]: 2.32 fold | Fold change 1500015O10Rik [3]: 4.68 fold | Fold change 4833423E24Rik [3]: 2.10 fold | Fold change Ache [3]: −1.12 fold | Fold change Ackr4 [3]: 3.74 fold | Fold change Aqp1 [3]: 7.41 fold and 7.4 fold | Fold change Calml4 [3]: 2.88 fold | Fold change Car12 [3]: 6.21 fold | Fold change Ccdc135 [3]: 2.84 fold | Fold change Cldn1 [3]: 2.48 fold | Fold change Cldn2 [3]: 8.46 fold | Fold change Col8a2 [3]: 3.06 fold | Fold change Crhr2 [3]: 2.35 fold | Fold change Enpp2 [3]: 2.22 fold | Fold change F5 [3]: 6.19 fold | Fold change Fap [3]: 3.16 fold | Fold change Folr1 [3]: 11.92 fold and 11.91 fold | Fold change Gmnc [3]: 2.40 fold | Fold change Gvin1 [3]: 5.55 fold | Fold change Hdac5 [3]: −1.13 fold | Fold change Hdac10 [3]: −1.20 fold | Fold change Igfbpl1 [3]: 2.39 fold | Fold change Il1a [3]: 2.21 fold | Fold change Inmt [3]: 6.34 fold | Fold change Kcne2 [3]: 17.29 fold | Fold change Kcnj13 [3]: 7.84 fold | Fold change Kl [3]: 5.00 fold | Fold change Krt18 [3]: 6.56 fold | Fold change Lbp [3]: 3.97 fold | Fold change Lum [3]: 2.08 fold | Fold change Mfrp [3]: 4.30 fold | Fold change Otx2 [3]: 5.17 fold | Fold change Postn [3]: 2.24 fold | Fold change Prr32 [3]: 5.41 fold | Fold change Rbm14-rbm4 [3]: 66.16 fold | Fold change Slc4a5 [3]: 4.83 fold | Fold change Sostdc1 [3]: 15.70 fold | Fold change Tgtp1 [3]: 2.49 fold | Fold change Tmem72 [3]: 6.47 fold | Fold change Tmprss11a [3]: 37.90 fold | Fold change Tnfsf13 [3]: 2.14 fold | Fold change Ttr [3]: 23.21 fold | Fold change Wfdc2 [3]: 4.61 fold | Log2FC Ascl1 [4]: 1.16 Log2FC | Log2FC Klf2 [4]: −1.57 Log2FC | Log2FC Klf4 [4]: −1.23 Log2FC | Log2FC Klf5 [4]: 1.25 Log2FC | Log2FC Klf6 [4]: 1.03 Log2FC | Log2FC Klf7 [4]: 1.12 Log2FC | Log2FC Klf9 [4]: −1.03 Log2FC | Log2FC Klf13 [4]: −1.16 Log2FC | Log2FC Klf15 [4]: −1.26 Log2FC | Log2FC Klf16 [4]: −1.08 Log2FC | Log2FC L-Myc (Mycl) [4]: 1.08 Log2FC | Log2FC Lin28b [4]: −1.13 Log2FC | Log2FC Myt1l [4]: 1.03 Log2FC | Log2FC N-Myc (Mycn) [4]: 1.63 Log2FC | Log2FC Nanog [4]: 1.01 Log2FC | Log2FC NeuroD1 [4]: 1.26 Log2FC | Log2FC Sirt1 [4]: 1.17 Log2FC | Log2FC Sox2 [4]: 1.25 Log2FC | Log2FC Sox11 [4]: 1.05 Log2FC | Log2FC Stat3 [4]: −1.00 Log2FC | Log2FC c-Myc (Myc) [4]: 1.14 Log2FC | Log2FC Ascl1 [5]: 1.05 Log2FC | Log2FC Klf2 [5]: 1.20 Log2FC | Log2FC Klf4 [5]: 1.13 Log2FC | Log2FC Klf5 [5]: −1.30 Log2FC | Log2FC Klf6 [5]: 1.05 Log2FC | Log2FC Klf7 [5]: 1.15 Log2FC | Log2FC Klf9 [5]: −1.05 Log2FC | Log2FC Klf13 [5]: −1.17 Log2FC | Log2FC Klf15 [5]: −1.16 Log2FC | Log2FC Klf16 [5]: −1.24 Log2FC | Log2FC L-Myc (Mycl) [5]: −1.54 Log2FC | Log2FC Lin28b [5]: 1.07 Log2FC | Log2FC Myt1l [5]: −1.17 Log2FC | Log2FC N-Myc (Mycn) [5]: 1.00 Log2FC | Log2FC Nanog [5]: −1.03 Log2FC | Log2FC NeuroD1 [5]: 1.21 Log2FC | Log2FC Sirt1 [5]: 1.02 Log2FC | Log2FC Sox2 [5]: 1.07 Log2FC | Log2FC Sox11 [5]: −1.21 Log2FC | Log2FC Stat3 [5]: −1.04 Log2FC | Log2FC c-Myc (Myc) [5]: −1.03 Log2FC
